Here are results for 26 molecules from patent publication US10457654B2 (GENENTECH, INC., priority 2017, dated 2019).

The target of the assay is hNav1.7 (Homo sapiens (Human), UniProt Q15858). In words: Tritiated compound binding to membranes from cells expressing hNav1.7 and the β1 subunit, competitive binding (LBA, Ex. 243A). To be noted: 100 pM [3H]compound, 18 h, room temperature. How it is done: Tritiated Compound Binding to Membranes Isolated from Cells that Heterologously Express hNav1.7 and the β1 Subunit
hNav1.7, sequence (Q15858 whole entry, looked up): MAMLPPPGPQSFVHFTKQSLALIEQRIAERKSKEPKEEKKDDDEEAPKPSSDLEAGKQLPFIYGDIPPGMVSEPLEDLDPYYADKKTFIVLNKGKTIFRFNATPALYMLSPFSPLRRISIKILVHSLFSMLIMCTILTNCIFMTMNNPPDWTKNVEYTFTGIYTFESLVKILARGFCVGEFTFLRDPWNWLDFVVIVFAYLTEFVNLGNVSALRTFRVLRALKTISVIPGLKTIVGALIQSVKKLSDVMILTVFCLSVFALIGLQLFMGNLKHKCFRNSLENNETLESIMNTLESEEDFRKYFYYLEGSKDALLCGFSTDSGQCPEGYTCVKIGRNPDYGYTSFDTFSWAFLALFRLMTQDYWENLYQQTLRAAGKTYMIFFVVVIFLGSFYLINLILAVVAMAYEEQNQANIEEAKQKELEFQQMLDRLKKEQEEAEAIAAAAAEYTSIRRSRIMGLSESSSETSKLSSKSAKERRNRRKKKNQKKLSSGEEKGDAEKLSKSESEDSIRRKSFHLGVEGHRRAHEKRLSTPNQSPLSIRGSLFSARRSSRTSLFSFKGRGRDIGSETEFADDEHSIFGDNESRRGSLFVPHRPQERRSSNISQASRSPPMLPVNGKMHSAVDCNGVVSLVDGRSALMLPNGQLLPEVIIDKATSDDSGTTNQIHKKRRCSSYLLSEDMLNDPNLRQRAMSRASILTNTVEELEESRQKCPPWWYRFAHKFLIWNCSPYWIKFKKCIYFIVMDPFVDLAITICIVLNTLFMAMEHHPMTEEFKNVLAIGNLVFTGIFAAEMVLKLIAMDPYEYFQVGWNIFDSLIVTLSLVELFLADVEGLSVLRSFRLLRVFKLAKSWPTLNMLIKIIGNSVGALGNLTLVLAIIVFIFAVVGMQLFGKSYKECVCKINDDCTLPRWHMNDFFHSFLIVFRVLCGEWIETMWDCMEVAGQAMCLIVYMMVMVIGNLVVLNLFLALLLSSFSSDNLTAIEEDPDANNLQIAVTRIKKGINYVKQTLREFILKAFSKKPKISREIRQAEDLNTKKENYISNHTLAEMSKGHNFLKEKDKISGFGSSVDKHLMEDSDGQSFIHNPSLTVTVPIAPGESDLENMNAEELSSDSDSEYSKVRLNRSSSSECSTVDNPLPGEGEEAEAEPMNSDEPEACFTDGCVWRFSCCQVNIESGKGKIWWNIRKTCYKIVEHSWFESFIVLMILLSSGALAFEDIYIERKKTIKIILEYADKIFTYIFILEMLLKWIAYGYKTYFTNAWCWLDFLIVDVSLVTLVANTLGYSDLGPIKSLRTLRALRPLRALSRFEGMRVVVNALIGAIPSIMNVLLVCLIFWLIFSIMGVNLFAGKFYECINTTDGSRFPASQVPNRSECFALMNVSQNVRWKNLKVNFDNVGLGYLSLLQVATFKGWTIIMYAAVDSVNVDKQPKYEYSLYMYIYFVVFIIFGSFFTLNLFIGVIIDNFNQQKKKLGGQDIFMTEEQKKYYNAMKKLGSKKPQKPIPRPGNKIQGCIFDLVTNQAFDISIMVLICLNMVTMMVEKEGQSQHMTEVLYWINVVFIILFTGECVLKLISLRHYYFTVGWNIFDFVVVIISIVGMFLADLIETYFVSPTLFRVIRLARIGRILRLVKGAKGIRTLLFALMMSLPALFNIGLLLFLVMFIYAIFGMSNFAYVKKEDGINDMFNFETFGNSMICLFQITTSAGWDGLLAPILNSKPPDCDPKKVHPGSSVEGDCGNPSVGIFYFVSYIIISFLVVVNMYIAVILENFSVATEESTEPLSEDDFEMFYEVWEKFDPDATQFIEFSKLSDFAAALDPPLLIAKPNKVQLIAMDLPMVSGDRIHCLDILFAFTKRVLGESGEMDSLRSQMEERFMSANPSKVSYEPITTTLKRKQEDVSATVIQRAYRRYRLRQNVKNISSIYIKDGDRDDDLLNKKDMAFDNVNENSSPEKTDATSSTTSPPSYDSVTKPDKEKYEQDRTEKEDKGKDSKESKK
hNav1.7, sequence (Q07699 whole entry partner, looked up): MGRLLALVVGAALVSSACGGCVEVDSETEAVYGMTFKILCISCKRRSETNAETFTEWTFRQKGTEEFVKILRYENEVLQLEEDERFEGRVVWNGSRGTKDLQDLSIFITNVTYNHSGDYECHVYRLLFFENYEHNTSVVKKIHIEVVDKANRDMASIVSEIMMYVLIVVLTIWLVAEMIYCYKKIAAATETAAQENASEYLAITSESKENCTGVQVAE
Preparation of membranes containing recombinantly expressed sodium channels: Frozen recombinant cell pellets were thawed on ice and diluted to 4 times the cell pellet weight with ice cold 50 mM Tris HCl, pH 7.4 buffer. The cell suspensions were homogenized on ice using a motorized glass dounce homogeniser. Homogenates were further diluted 8.4 times with ice cold 50 mM Tris HCl, pH 7.4 buffer and then centrifuged at 200×g at 4° C. for 15 min. The supernatants were collected and centrifuged at 10000×g at 4° C. for 50 min. […] The homogenized membranes were then processed through a syringe equipped with a 26 gauge needle. Protein concentrations were determined by Bradford Assay and the membranes were stored at −80° C.
Radioligand Binding Studies: Saturation experiments. A competitive NaV1.7 inhibitor having a methyl group was tritiated. Three tritiums were incorporated in place of methyl hydrogens to generate [^3H]compound. Binding of this radioligand was performed in 5 mL borosilicate glass test tubes at room temperature. […] Non-specific binding was determined in the presence of 1 μM unlabeled compound. After 18h, the reactants were filtered through GF/C glass fiber filters presoaked in 0.5% w/v polyethylene imine. […] [^3H]compound bound to filters was quantified by liquid scintillation counting.
Competitive binding experiments: Binding reactions were performed in 96-well polypropylene plates at room temperature for 18h. In 360 μL, membranes were incubated with 100 pM [^3H]compound and increasing concentrations of Test Compound. Non-specific binding was defined in the presence of 1 μM unlabeled compound. Reactions were transferred and filtered through 96-well glass fiber/C filter plates presoaked with 0.5% polyethylene imine. The filtered reactions were washed 5 times with 200 μL ice cold buffer containing 0.25% BSA. Bound radioactivity was determined by liquid scintillation counting.
Data Analysis: For saturation experiments, non-specific binding was subtracted from total binding to provide specific binding and these values were recalculated in terms of pmol ligand bound per mg protein. Saturation curves were constructed and dissociation constants were calculated using the single site ligand binding model: Beq=(Bmax*X)/(X+Kd), where Beq is the amount of ligand bound at equilibrium, Bmax is the maximum receptor density, Kd is the dissociation constant for the ligand, and X is the free ligand concentration. For competition studies percent inhibition was determined and IC50 values were calculated using a 4 parameter logistic model (% inhibition=(A+((B−A)/(1+((x/C)^D)))) using XLfit, where A and B are the maximal and minimum inhibition respectively, C is the IC50 concentration and D is the (Hill) slope.

[1] abbreviates: read-out: Nav1.7 LBA (Ex. 243A) IC50.
[2] abbreviates: read-out: Nav1.7 (LBA) (Ex. 243A).

Counter-ions that a name gives are not always drawn. Like-named read-outs stand apart in the source and are kept apart here.

Turning to `CN(CC(N)=O)[C@H]1CCCC[C@@H]1Nc1cc(F)c(S(=O)(=O)Nc2nccs2)cc1Cl` [Example 79, 2-(((1S,2S)-2-((2-chloro-5-fluoro-4-(N-(thiazol-2-yl)sulfamoyl)phenyl)amino)cyclohexyl)(methyl)amino)acetamide formate], the IC50 under setting [1] is 9.28 nM.

As for `CN(C)[C@@H]1CCC[C@H]1Oc1cc(F)c(S(=O)(=O)Nc2nccs2)cc1Cl` [Example 10, 5-chloro-4-(((1R,2R)-2-(dimethylamino)cyclopentyl)oxy)-2-fluoro-N-(thiazol-2-yl)benzenesulfonamide], the IC50 under setting [2] was determined as 553 nM. `CN(CCO)[C@H]1CCCC[C@@H]1Nc1cc(F)c(S(=O)(=O)Nc2nccs2)cc1C1CC1` [Example 56, 5-cyclopropyl-2-fluoro-4-(((1S,2S)-2-((2-hydroxyethyl)(methyl)amino)cyclohexyl)amino)-N-(thiazol-2-yl)benzenesulfonamide hydrochloride]: the IC50 under setting [1] was 3.46 nM.

Turning to `CN(C)[C@H]1CC[C@@H](C(F)(F)F)C[C@@H]1Nc1cc(F)c(S(=O)(=O)Nc2nccs2)cc1Cl` [Example 76, 5-chloro-4-(((1S,2S,5R)-2-(dimethylamino)-5-(trifluoromethyl)cyclohexyl)amino)-2-fluoro-N-(thiazol-2-yl)benzenesulfonamide], under setting [1], the IC50 is 116 nM. For the molecule `CN(C)[C@H]1CC[C@H](c2cccc(C(F)(F)F)c2)C[C@@H]1Nc1cc(F)c(S(=O)(=O)Nc2nccs2)cc1Cl` [Example 87, 5-chloro-4-(((1S,2S,5S)-2-(dimethylamino)-5-(3-(trifluoromethyl)phenyl)cyclohexyl)amino)-2-fluoro-N-(thiazol-2-yl)benzenesulfonamide], the IC50 under setting [1] is 0.539 nM. Same read-out and setting: the result for `O=S(=O)(Nc1nccs1)c1cc(Cl)c(N[C@H]2CCCC[C@@H]2N2CCC(F)C2)cc1F` (stereo partly drawn) [Example 104, 5-chloro-2-fluoro-4-(((1S,2S)-2-(3-fluoropyrrolidin-1-yl)cyclohexyl)amino)-N-(thiazol-2-yl)benzenesulfonamide] reads 35.6 nM; that for `CN(C)[C@H]1C[C@@H](C(F)(F)F)CC[C@@H]1Nc1cc(F)c(S(=O)(=O)Nc2nccs2)cc1Cl` [Example 82, 5-chloro-4-(((1S,2S,4S)-2-(dimethylamino)-4-(trifluoromethyl)cyclohexyl)amino)-2-fluoro-N-(thiazol-2-yl)benzenesulfonamide], 3.35 nM. Still for that read-out and setting: the result for `CCN[C@H]1CCCC[C@@H]1Nc1cc(F)c(S(=O)(=O)Nc2nccs2)cc1C1CC1` [Example 64, 5-cyclopropyl-4-(((1S,2S)-2-(ethylamino)cyclohexyl)amino)-2-fluoro-N-(thiazol-2-yl)benzenesulfonamide formate] reads 11.6 nM. The same measure, in the same setting: as for `CCN[C@H]1CCCC[C@@H]1Oc1cc(F)c(S(=O)(=O)Nc2nccs2)cc1Cl` [Example 42, 5-chloro-4-(((1S,2S)-2-(ethylamino)cyclohexyl)oxy)-2-fluoro-N-(thiazol-2-yl)benzenesulfonamide], the figure is 27.2 nM. For the molecule `CCN(C)[C@H]1CCCC[C@@H]1Nc1cc(F)c(S(=O)(=O)Nc2cccc(F)n2)cc1Cl` [Example 71, 5-chloro-4-(((1S,2S)-2-(ethyl(methyl)amino)cyclohexyl)amino)-2-fluoro-N-(6-fluoropyridin-2-yl)benzenesulfonamide], under setting [1], the IC50 amounted to 41.3 nM.

As for `O=S(=O)(Nc1nccs1)c1cc(Cl)c(N[C@H]2CCCC[C@@H]2N2CC[C@@H](O)C2)cc1F` [Example 68, 5-chloro-2-fluoro-4-(((1S,2S)-2-((R)-3-hydroxypyrrolidin-1-yl)cyclohexyl)amino)-N-(thiazol-2-yl)benzenesulfonamide], the IC50 under setting [1] came out at 16.6 nM.

As to `N[C@H]1CCCC[C@@H]1Nc1cc(F)c(S(=O)(=O)Nc2nccs2)cc1Cl` [Example 1, 4-(((1S,2S)-2-aminocyclohexyl)amino)-5-chloro-2-fluoro-N-(thiazol-2-yl)benzenesulfonamide], the IC50 under setting [2] worked out at 197 nM. Consider `CN(C)[C@H]1CCCC[C@@H]1Nc1cc(F)c(S(=O)(=O)Nc2ncc(F)s2)cc1Cl` [Example 49, 5-chloro-4-(((1S,2S)-2-(dimethylamino)cyclohexyl)amino)-2-fluoro-N-(5-fluorothiazol-2-yl)benzenesulfonamide], for which, under setting [1], the IC50 is 42.1 nM. Still for that read-out and setting: as for `O=S(=O)(Nc1cccc(F)n1)c1cc(Cl)c(N[C@H]2CCCC[C@@H]2N2CCC(O)C2)cc1F` (stereo partly drawn) [Example 62, 5-chloro-2-fluoro-N-(6-fluoropyridin-2-yl)-4-(((1S,2S)-2-(3-hydroxypyrrolidin-1-yl)cyclohexyl)amino)benzenesulfonamide], the figure is 57.8 nM; as for `CC1CCCN1[C@H]1CCCC[C@@H]1Nc1cc(F)c(S(=O)(=O)Nc2nccs2)cc1Cl` (stereo partly drawn) [Example 44, 5-chloro-2-fluoro-4-(((1 S,2S)-2-(2-methylpyrrolidin-1-yl)cyclohexyl)amino)-N-(thiazol-2-yl)benzenesulfonamide], 74.4 nM. With `CN[C@H]1CCCC[C@@H]1N(C)c1cc(F)c(S(=O)(=O)Nc2nccs2)cc1Cl` [Example 20, 5-chloro-2-fluoro-4-(methyl((1S,2S)-2-(methylamino)cyclohexyl)amino)-N-(thiazol-2-yl)benzenesulfonamide], the IC50 under setting [2] worked out at 211 nM.

`CN(C)[C@H]1CCCC[C@@H]1N1CCOc2cc(S(=O)(=O)Nc3nccs3)ccc21` [Example 54, 4-((1 S,2S)-2-(dimethylamino)cyclohexyl)-N-(thiazol-2-yl)-3,4-dihydro-2H-benzo[b][1,4]oxazine-7-sulfonamide]: under setting [1], the IC50 came to 97.9 nM.

Turning to `CN(C[C@H](O)C(F)(F)F)[C@H]1CCCC[C@@H]1Nc1cc(F)c(S(=O)(=O)Nc2nccs2)cc1Cl` [Example 94, 5-chloro-2-fluoro-4-(((1S,2S)-2-(methyl((S)-3,3,3-trifluoro-2-hydroxypropyl)amino)cyclohexyl)amino)-N-(thiazol-2-yl)benzenesulfonamide], under setting [1], the IC50 stood at 31.3 nM. Same read-out and setting: as for `CN(C)[C@@H]1CC[C@H](c2cccc(C(F)(F)F)c2)C[C@H]1Nc1cc(F)c(S(=O)(=O)Nc2nccs2)cc1Cl` [Example 103, 5-chloro-4-(((1R,2R,5S)-2-(dimethylamino)-5-(3-(trifluoromethyl)phenyl)cyclohexyl)amino)-2-fluoro-N-(thiazol-2-yl)benzenesulfonamide], the figure is 32.2 nM; as for `O=S(=O)(Nc1cccc(F)n1)c1cc(Cl)c(N[C@H]2CCCC[C@@H]2N2CCCC2)cc1F` [Example 99, 5-chloro-2-fluoro-N-(6-fluoropyridin-2-yl)-4-(((1S,2S)-2-(pyrrolidin-1-yl)cyclohexyl)amino)benzenesulfonamide], 65.5 nM. As to `CCCN[C@H]1CCCC[C@@H]1Nc1cc(F)c(S(=O)(=O)Nc2nccs2)cc1Cl` [Example 34, 5-chloro-2-fluoro-4-(((1 S,2S)-2-(propylamino)cyclohexyl)amino)-N-(thiazol-2-yl)benzenesulfonamide], under setting [1], the IC50 was 35.2 nM. `CCN[C@H]1CCCC[C@@H]1Oc1cc(F)c(S(=O)(=O)Nc2ccncn2)cc1C1CC1` [Example 96, 5-cyclopropyl-4-(((1S,2S)-2-(ethylamino)cyclohexyl)oxy)-2-fluoro-N-(pyrimidin-4-yl)benzenesulfonamide]: the IC50 under setting [1] came out at 630 nM. Same read-out and setting: as for `CN(C)[C@H]1CCCC[C@@H]1Oc1cc(F)c(S(=O)(=O)Nc2nccs2)cc1C(F)(F)F` [Example 78, 4-(((1S,2S)-2-(dimethylamino)cyclohexyl)oxy)-2-fluoro-N-(thiazol-2-yl)-5-(trifluoromethyl)benzenesulfonamide formate], the figure is 95.6 nM; as for `CN(C[C@@H](O)C(F)(F)F)[C@H]1CCCC[C@@H]1Nc1cc(F)c(S(=O)(=O)Nc2nccs2)cc1Cl` [Example 95, 5-chloro-2-fluoro-4-(((1S,2S)-2-(methyl((R)-3,3,3-trifluoro-2-hydroxypropyl)amino)cyclohexyl)amino)-N-(thiazol-2-yl)benzenesulfonamide], 24.3 nM. In the case of `CN(C)[C@H]1CCCC[C@@H]1Nc1cc(F)c(S(=O)(=O)Nc2nccs2)cc1Cl` [Example 2, 5-chloro-4-(((1S,2S)-2-(dimethylamino)cyclohexyl)amino)-2-fluoro-N-(thiazol-2-yl)benzenesulfonamide], the IC50 under setting [2] stood at 38.2 nM. For `CN(C)[C@@H]1CCCC[C@H]1Oc1cc(F)c(S(=O)(=O)Nc2nccs2)cc1Cl` [Example 8, 5-chloro-4-(((1R,2R)-2-(dimethylamino)cyclohexyl)oxy)-2-fluoro-N-(thiazol-2-yl)benzenesulfonamide], the IC50 under setting [2] worked out at 3000 nM.
